This note sets out measurements from paper PMC7529758, “Over-activation of a nonessential bacterial protease DegP as an antibiotic strategy” (Communications Biology, 2020).

Test [1] deals with T1, DegP^S210A (Escherichia coli, UniProt P0C0V0, S236A).
T1 construct: pET22b-degP(full length; S210A)_6His; 6His (C); made in house
Kind of test: Fluorescence anisotropy binding assay. The method, then: Fluorescence anisotropy assay was performed as previously described[14],[22]. Two-fold serial dilutions of activators were mixed with a fluorescence-labeled peptide (^flC18–58 or ^fl45–58, 50 nM; Oregon Green 488 maleimide, Invitrogen) and DegP^S210A (10 μM for ^flC18–58; 80 μM for ^fl45–58). Anisotropy was monitored by using a micro-plate reader (excitation 485 nm, emission 535 nm, Infinite F200pro, Tecan). The assay was performed in triplicates.
For orientation: In fluorescence polarisation assays a small probe gives low polarisation when free and higher when bound to something large.

The subject of the next test is DegP^WT. Kind of test: DegP activation assay with the reporter peptide. It is filed as biochemical, Escherichia coli. The conditions noted are these: reporter 100 μM. The method, then:
DegP activation experiments were performed as previously described[14],[22]. All the in vitro assays were performed in a buffer containing 50 mM sodium phosphate (pH 8) and 100 mM NaCl. Two-fold serial dilutions of the activator were incubated with DegP^WT (1, 3, or 10 μM) for 5 min. After incubation, the reporter peptide (Abz-[…]^NO2D; Abz, 2-aminobenzoic acid; Y^NO2, 3-nitrotyrosine; 100 μM final) was added. DegP activation was monitored by increased fluorescence by using a micro-plate reader (excitation 320 nm, emission 430 nm; Infinite F200pro, Tecan). Assays were performed in triplicates.

The target in test [2] is T2, DegP^S210A (Escherichia coli, UniProt P0C0V0, C83S/C95S/N322C/S236A).
T2 construct: pET22b-degP(full length; C57S/C69S/N296C/S210A)_6His; 6His (C); made in house; host or cells: E. coli (inferred from the pET plasmid)
T2 sequence (P0C0V0 27-474 C83S/C95S/S236A/N322C): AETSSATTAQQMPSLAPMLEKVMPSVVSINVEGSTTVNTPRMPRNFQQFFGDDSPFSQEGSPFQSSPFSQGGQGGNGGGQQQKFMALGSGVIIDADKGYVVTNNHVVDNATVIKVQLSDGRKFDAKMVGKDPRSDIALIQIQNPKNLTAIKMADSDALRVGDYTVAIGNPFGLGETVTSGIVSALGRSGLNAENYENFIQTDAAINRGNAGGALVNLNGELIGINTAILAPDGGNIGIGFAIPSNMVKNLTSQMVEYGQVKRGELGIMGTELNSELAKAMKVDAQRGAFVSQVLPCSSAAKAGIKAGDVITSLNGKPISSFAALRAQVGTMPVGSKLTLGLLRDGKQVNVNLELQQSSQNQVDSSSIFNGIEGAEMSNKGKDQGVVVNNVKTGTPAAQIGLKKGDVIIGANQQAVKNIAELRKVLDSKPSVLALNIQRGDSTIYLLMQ
Briefly: FRET assay of DegP cage assembly. It is filed as biochemical. The conditions noted are these: FRET of donor- and acceptor-labeled DegP variants. The method, then: Fluorescence resonance energy transfer (FRET) assay was performed as previously described[14],[22]. Equimolar amounts of fluorescence donor- and acceptor-labeled DegP^S210A (total 0.1, 1 or 3 μM) was mixed in a buffer containing 50 mM sodium phosphate (pH 8) and 100 mM NaCl. Two-fold serial dilutions of activators were added to the DegP mixtures. Alexa Fluor 555 C2-maleinide and 647 C2-maleinide (life technologies) were used as fluorescence dyes. Cage assembly of DegP was monitored by increased FRET ratio using the micro-plate reader (excitation 520 nm, emission 570 or 670 nm, Infinite M200pro, Tecan). Assays were performed in triplicates.

For another test, the system named is E.coli imp4213 strain. Format: cell-based, Escherichia coli. The conditions noted are these: log-phase cells; 2x MIC; both 30 °C and 42 °C; CFU. How it is done: Time-kill experiment was performed by counting the viable bacteria at each time point. The E.coli imp4213 strain was cultured with streptomycin overnight and diluted 1:100 in fresh LB broth. When the OD600 value became 0.01, the activator was added at 2x MIC. The sample was incubated with shaking (180 rpm) at 30 °C or 42 °C, and aliquots were taken after 0, 1, 2, 4, 6, 8, 10, or 12 h. These aliquots were serially diluted (ten-fold) and plated on LB agar plates for colony counts. Experiments were performed in triplicates. The kill curves were plotted with the CFU/mL against time.
Experiments with cells in the stationary phase, however, were performed without dilution of the overnight culture.

The next test relates to E. coli imp4213. Briefly: microbe, parasite or virus in culture. It is filed as cell-based, Escherichia coli. The conditions noted are these: imp4213, 12 h, LB. How it is done:
(§1) The susceptibility of E. coli to activators was analyzed by determining the MICs. Two-fold serial dilutions of activators in LB broth were added to bacteria (OD600 = 0.1) in 96-well plates. Plates were incubated with shaking at 30 or 42 °C. After 12 h of incubation, the MIC was defined as the lowest concentration of the activator to inhibit the growth of bacteria by using a micro-plate reader (Absorbance 600 nm, Infinite M200pro, Tecan). The assay was performed in triplicates.

Test [3] relates to wild-type Escherichia coli (W3110). Kind of test: Growth (OD600) of wild-type cells. It is filed as cell-based. Particulars: LB; OD600 after 12 h; 42 °C. The method, then: as §1

Converted amounts (≈) assume the structure as drawn. *1 amine or outer side, *2 acyl side, *3 side chain or, on linkers, in order; H or OH if unused. Where a SMILES comes first, the peptide text is derived from it. Bridges are numbered along the chain shown (N, C = ends). Roman numbers before positions name the chains, in order. TBMB = c1c(C[*:1])cc(C[*:3])cc1C[*:2] Bounds are passed on as bounds.

T1 sequence (P0C0V0 27-474 S236A): as the sequence (P0C0V0 27-474 C83S/C95S/S236A/N322C) above, with S57C, S69C, C296N counted along it

Take `CC(C)C[C@H](NC(=O)[C@H](CCCCN)NC(=O)[C@H](CCCNC(=N)N)NC(=O)[C@H](Cc1ccc(O)cc1)NC(=O)[C@@H](N)CSCc1cc(CSC[C@H](N)C(=O)N[C@@H](Cc2ccc(O)cc2)C(=O)N[C@@H](CCCNC(=N)N)C(=O)N[C@@H](CCCCN)C(=O)N[C@@H](CC(C)C)C(=O)O)cc(CSC[C@H](N)C(=O)N[C@@H](Cc2ccc(O)cc2)C(=O)N[C@@H](CCCNC(=N)N)C(=O)N[C@@H](CCCCN)C(=O)N[C@@H](CC(C)C)C(=O)O)c1)C(=O)O` [TMB_CYRKL] (I: H-CYRKL-OH / II: H-CYRKL-OH / III: H-CYRKL-OH; linker I:1-II:1-III:1 via TBMB): on DegP^S210A [1] (DegPS210A 10 μM), the “concentrations that enhance binding of fl18-58” value was 5~ 40 µM and the “concentrations that interrupt the interaction of fl18-58” value was greater than 40 µM. For the same molecule, on DegP^S210A [1] (DegPS210A 80 μM), the “concentrations that enhance binding of fl45-58” value is recorded as 10~ 80 µM and the “concentrations that interrupt the interaction of fl45-58” value is reported as greater than 80 µM. The “increase of the cleavage rate compared with Lpp^+Leu and TMB_CKYRKL” value in the test on DegP^WT is on record as “at least ten times more”. For the same molecule, the “activation of DegP (cleavage rate of the reporter peptide)” value in the test with DegP^WT (DegP 1 or 10 μM, increasing concentrations) is “activation was observed”. Further, the “assembly of DegP cages” value at DegP^S210A [2] is given as “assemble DegP cages”. Further, the “reduction of the number of viable cells” value with E.coli imp4213 strain is “two orders of magnitude”. Further, in the test on E. coli imp4213 (30 °C), the MIC is 320 µM (≈ 691 µg/mL). Also, the MIC with E. coli imp4213 (Fig. 3a and Supplementary Fig. 6b (30 °C and 42 °C)) fell in the range of 320 to 640 µM. The “growth of wild-type E. coli W3110” value in test [3] is listed as “did not inhibit growth”.
